Tests used:
[1] = target: P70S6K (T412E mutant) (Homo sapiens (Human), UniProt P23443, T412E); assay: P70S6K enzyme assay; type: biochemical; conditions: read-out: IC50 p70S6K
Procedure, shortened: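 Read-out is the substrate/phosphopeptide ratio from mobility-shift electrophoresis on a LabChip 3000.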

[2] = target: His-AKT (Full Length) (Homo sapiens (Human), UniProt P31749); assay: AKT enzyme assay; type: biochemical; conditions: read-out: IC50 AKT
His-AKT (Full Length), sequence (P31749 whole entry): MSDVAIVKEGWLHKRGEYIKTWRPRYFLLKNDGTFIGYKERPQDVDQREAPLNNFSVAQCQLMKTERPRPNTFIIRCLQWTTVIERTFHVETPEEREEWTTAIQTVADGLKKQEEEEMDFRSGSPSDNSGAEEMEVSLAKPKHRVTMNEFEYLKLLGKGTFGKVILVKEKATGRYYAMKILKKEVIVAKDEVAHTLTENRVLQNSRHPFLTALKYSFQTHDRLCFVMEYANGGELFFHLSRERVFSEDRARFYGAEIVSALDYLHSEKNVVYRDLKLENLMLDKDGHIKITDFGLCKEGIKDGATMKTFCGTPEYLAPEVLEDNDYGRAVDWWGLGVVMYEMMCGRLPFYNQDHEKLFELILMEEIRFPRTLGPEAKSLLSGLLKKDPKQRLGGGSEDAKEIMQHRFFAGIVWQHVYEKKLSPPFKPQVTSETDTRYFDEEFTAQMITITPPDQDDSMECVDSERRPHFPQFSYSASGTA

P70S6K (T412E mutant), sequence (P23443 whole entry T412E): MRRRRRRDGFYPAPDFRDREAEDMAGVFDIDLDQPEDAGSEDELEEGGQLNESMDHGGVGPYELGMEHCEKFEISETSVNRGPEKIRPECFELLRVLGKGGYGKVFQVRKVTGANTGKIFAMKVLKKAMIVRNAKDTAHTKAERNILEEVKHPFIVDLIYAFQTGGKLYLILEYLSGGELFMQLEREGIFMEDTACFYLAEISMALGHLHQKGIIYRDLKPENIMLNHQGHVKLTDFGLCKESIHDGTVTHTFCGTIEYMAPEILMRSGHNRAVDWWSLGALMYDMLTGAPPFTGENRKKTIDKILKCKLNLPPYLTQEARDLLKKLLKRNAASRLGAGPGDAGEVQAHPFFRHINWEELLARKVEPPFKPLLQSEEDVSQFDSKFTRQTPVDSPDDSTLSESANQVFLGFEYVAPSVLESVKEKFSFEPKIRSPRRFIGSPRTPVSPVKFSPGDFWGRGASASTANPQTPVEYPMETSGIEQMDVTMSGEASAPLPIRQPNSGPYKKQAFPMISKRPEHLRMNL

Row | Structure (SMILES) | IC50 [1] | IC50 [2]
1 | Nc1ncnc(N2CCC(c3nc(-c4ccc(F)c(C(F)(F)F)c4)cn3CCN3CCC3)CC2)c1-c1ccc(F)cc1 [Compound 219] | 2.4 nM | 2.3 nM
2 | C=Cc1c(N)ncnc1N1CCC(c2nc(-c3ccc(F)c(C(F)(F)F)c3)cn2CCN2CCC2)CC1 [Compound 220] | 2.6 nM | 4.2 nM
3 | Nc1cc(N2CCC(c3nc(-c4ccc(F)c(C(F)(F)F)c4)cn3CCN3CCC3)CC2)ncn1 [Compound 221] | 21 nM | 71 nM
4 | COC(=O)c1ccc(-c2c(N)ncnc2N2CCC(c3nc(-c4ccc(F)c(C(F)(F)F)c4)cn3CCN3CCC3)CC2)cc1 [Compound 222] | 11 nM | 43 nM
5 | COC(=O)c1ccc(-c2c(N)ncnc2N2CCC(c3nc(-c4ccc(F)c(C(F)(F)F)c4)cn3CCN3CCCC3)CC2)cc1 [Compound 223] | 21 nM | 78 nM
6 | Nc1ncnc(N2CCC(c3nc(-c4ccc(F)c(C(F)(F)F)c4)cn3CCN3CCC3)CC2)c1-c1ccc(C(=O)O)cc1 [Compound 224] | 5.7 nM | 12 nM
7 | Nc1ncnc(N2CCC(c3nc(-c4ccc(F)c(C(F)(F)F)c4)cn3CCN3CCCC3)CC2)c1-c1ccc(C(=O)O)cc1 [Compound 225] | 5.8 nM | 12 nM
8 | Nc1ncnc(N2CCC(c3nc(-c4ccc(F)c(F)c4)cn3CCN3CCCC3)CC2)c1Br [Compound 226] | 1.3 nM | 1.7 nM
9 | Nc1ncnc(N2CCC(c3nc(-c4ccc(F)cc4)cn3CCN3CCCC3)CC2)c1Br [Compound 227] | 1.4 nM | 2.9 nM
10 | Nc1ncnc(N2CCC(c3nc(-c4cccc(F)c4)cn3CCN3CCCC3)CC2)c1Br [Compound 228] | 1.4 nM | 5.9 nM
11 | Nc1ncnc(N2CCC(c3nc(-c4ccc(C(F)(F)F)c(F)c4)cn3CCN3CCCC3)CC2)c1Br [Compound 229] | 6.3 nM | 71 nM
12 | CCc1c(N)ncnc1N1CCC(c2nc(-c3ccc(F)c(C(F)(F)F)c3)cn2CCN2CCC2)CC1 [Compound 230] | 2.1 nM | 4.1 nM
13 | CCc1c(N)ncnc1N1CCC(c2nc(-c3cccc(F)c3)cn2CCN2CCCC2)CC1 [Compound 231] | 3.6 nM | 46 nM
14 | CCc1c(N)ncnc1N1CCC(c2nc(-c3ccc(F)cc3)cn2CCN2CCCC2)CC1 [Compound 232] | 2.3 nM | 20 nM
15 | CCc1c(N)ncnc1N1CCC(c2nc(-c3ccc(F)c(F)c3)cn2CCN2CCCC2)CC1 [Compound 233] | 1.1 nM | 8.2 nM
16 | CCc1c(N)ncnc1N1CCC(c2nc(-c3ccc(C(F)(F)F)c(F)c3)cn2CCN2CCCC2)CC1 [Compound 234] | 13 nM | 470 nM
17 | Nc1ncnc(N2CCC(c3nc(-c4ccc(C(F)(F)F)c(F)c4)cn3CCN3CCCC3)CC2)c1Cl [Compound 235] | 10 nM | 1000 nM
18 | Nc1ncnc(N2CCC(c3nc(-c4cccc(F)c4)cn3CCN3CCCC3)CC2)c1Cl [Compound 236] | 0.5 nM | 8.1 nM

Row | Structure (SMILES) | IC50 [1] | IC50 [2]
19 | Nc1ncnc(N2CCC(c3nc(-c4ccc(F)cc4)cn3CCN3CCCC3)CC2)c1Cl [Compound 237] | 0.8 nM | 3.3 nM
20 | Nc1ncnc(N2CCC(c3nc(-c4ccc(F)c(F)c4)cn3CCN3CCCC3)CC2)c1Cl [Compound 238] | 0.9 nM | 3.2 nM
21 | C=Cc1c(N)ncnc1N1CCC(c2nc(-c3ccc(C(F)(F)F)c(F)c3)cn2CCN2CCCC2)CC1 [Compound 239] | 4.4 nM | 210 nM
22 | C=Cc1c(N)ncnc1N1CCC(c2nc(-c3cccc(F)c3)cn2CCN2CCCC2)CC1 [Compound 240] | 0.9 nM | 21 nM
23 | C=Cc1c(N)ncnc1N1CCC(c2nc(-c3ccc(F)cc3)cn2CCN2CCCC2)CC1 [Compound 241] | 2.9 nM | 16 nM
24 | C=Cc1c(N)ncnc1N1CCC(c2nc(-c3ccc(F)c(F)c3)cn2CCN2CCCC2)CC1 [Compound 242] | 1.4 nM | 9.7 nM
25 | Nc1cc(N2CCC(c3nc(-c4ccc(F)c(F)c4)cn3CCN3CCCC3)CC2)ncn1 [Compound 243] | 18 nM | 63 nM
26 | Nc1cc(N2CCC(c3nc(-c4cccc(F)c4)cn3CCN3CCCC3)CC2)ncn1 [Compound 244] | 25 nM | 210 nM
27 | CCc1c(N)ncnc1N1CCC(c2nc(-c3ccc(C(F)(F)F)c(F)c3)cn2CCN2CC[C@H](F)C2)CC1 [Compound 245] | 5.3 nM | 64 nM
28 | CCc1c(N)ncnc1N1CCC(c2nc(-c3ccc(C(F)(F)F)c(F)c3)cn2CCN2CC[C@@H](F)C2)CC1 [Compound 246] | 1.7 nM | 25 nM
29 | CCc1c(N)ncnc1N1CCC(c2nc(-c3ccc(C(F)(F)F)c(F)c3)cn2CCN2CCC(F)(F)CC2)CC1 [Compound 247] | 5.5 nM | 520 nM
30 | CCc1c(N)ncnc1N1CCC(c2nc(-c3ccc(C(F)(F)F)c(F)c3)cn2CCN2CCCC(F)(F)C2)CC1 [Compound 248] | 16 nM | 1000 nM
31 | CCc1c(N)ncnc1N1CCC(c2nc(-c3ccc(C(F)(F)F)c(F)c3)cn2CCN2CCC(F)CC2)CC1 [Compound 249] | 10 nM | 86 nM
32 | CCc1c(N)ncnc1N1CCC(c2nc(-c3ccc(C(F)(F)F)c(F)c3)cn2CCN2CCCC(F)C2)CC1 (centres unmarked) [Compound 250] | 5.7 nM | 210 nM
33 | CCc1c(N)ncnc1N1CCC(c2nc(-c3ccc(Cl)c(F)c3)cn2CCN2CCCC2)CC1 [Compound 251] | 2.6 nM | 76 nM
34 | CCc1c(N)ncnc1N1CCC(c2nc(-c3ccc(F)c(Cl)c3)cn2CCN2CCCC2)CC1 [Compound 252] | 0.2 nM | 0.4 nM
35 | Nc1ncnc(N2CCC(c3nc(-c4ccc(C(F)(F)F)c(F)c4)cn3CCN3CCCCC3)CC2)c1C1CCC1 [Compound 253] | 19 nM | 28 nM
36 | Nc1ncnc(N2CCC(c3nc(-c4ccc(C(F)(F)F)c(F)c4)cn3CCN3CCCC3)CC2)c1C1CCC1 [Compound 254] | 8.1 nM | 9.1 nM

Next, values leading:

Row | IC50 [1] | IC50 [2] | Structure (SMILES)
37 | 6.9 nM | 9.4 nM | Nc1ncnc(N2CCC(c3nc(-c4ccc(F)c(F)c4)cn3CCN3CCCC3)CC2)c1C1CCC1 [Compound 255]
38 | 6.5 nM | 11 nM | Nc1ncnc(N2CCC(c3nc(-c4ccc(F)cc4)cn3CCN3CCCC3)CC2)c1C1CCC1 [Compound 256]
39 | 4 nM | 20 nM | Nc1ncnc(N2CCC(c3nc(-c4cccc(F)c4)cn3CCN3CCCC3)CC2)c1C1CCC1 [Compound 257]
40 | 36 nM | 380 nM | Nc1ncnc(N2CCC(c3nc(-c4ccc(C(F)(F)F)c(F)c4)cn3CCN3CCCC3)CC2)c1C1CCC1 [Compound 258]
41 | 37 nM | 430 nM | Nc1ncnc(N2CCC(c3nc(-c4ccc(C(F)(F)F)cc4)cn3CCN3CCCC3)CC2)c1C1CCC1 [Compound 259]
42 | 21 nM | 67 nM | Nc1ncnc(N2CCC(c3nc(-c4ccc(Cl)c(F)c4)cn3CCN3CCCC3)CC2)c1C1CCC1 [Compound 260]
43 | 6.3 nM | 8.1 nM | Nc1ncnc(N2CCC(c3nc(-c4cccc(C(F)(F)F)c4)cn3CCN3CCCC3)CC2)c1C1CCC1 [Compound 261]
44 | 4 nM | 4.9 nM | Nc1ncnc(N2CCC(c3nc(-c4ccc(F)c(Cl)c4)cn3CCN3CCCC3)CC2)c1C1CCC1 [Compound 262]
45 | 25 nM | 79 nM | Nc1ncnc(N2CCC(c3nc(-c4ccc(Cl)cc4)cn3CCN3CCCC3)CC2)c1C1CCC1 [Compound 263]
46 | 4.1 nM | 6.2 nM | Nc1ncnc(N2CCC(c3nc(-c4cccc(Cl)c4)cn3CCN3CCCC3)CC2)c1C1CCC1 [Compound 264]
47 | 6.2 nM | 110 nM | Nc1ncnc(N2CCC(c3nc(-c4ccc(C(F)(F)F)cc4)cn3CCN3CCCC3)CC2)c1Br [Compound 265]
48 | 3.3 nM | 16 nM | Nc1ncnc(N2CCC(c3nc(-c4ccc(Cl)c(F)c4)cn3CCN3CCCC3)CC2)c1Br [Compound 266]
49 | 2.2 nM | 4.2 nM | Nc1ncnc(N2CCC(c3nc(-c4cccc(C(F)(F)F)c4)cn3CCN3CCCC3)CC2)c1Br [Compound 267]
50 | 1.4 nM | 1.8 nM | Nc1ncnc(N2CCC(c3nc(-c4ccc(F)c(Cl)c4)cn3CCN3CCCC3)CC2)c1Br [Compound 268]
51 | 10 nM | 190 nM | C=Cc1c(N)ncnc1N1CCC(c2nc(-c3ccc(C(F)(F)F)cc3)cn2CCN2CCCC2)CC1 [Compound 269]
52 | 360 nM | 1000 nM | Nc1cc(N2CCC(c3nc(-c4ccc(C(F)(F)F)cc4)cn3CCN3CCCC3)CC2)ncn1 [Compound 270]
53 | 12 nM | 180 nM | CCc1c(N)ncnc1N1CCC(c2nc(-c3ccc(C(F)(F)F)cc3)cn2CCN2CCCC2)CC1 [Compound 271]
54 | 3.5 nM | 9.6 nM | CCc1c(N)ncnc1N1CCC(c2nc(-c3cccc(C(F)(F)F)c3)cn2CCN2CCCC2)CC1 [Compound 272]
55 | 7.4 nM | 190 nM | CCc1c(N)ncnc1N1CCC(c2nc(-c3ccc(Cl)cc3)cn2CCN2CCCC2)CC1 [Compound 273]
56 | 1.5 nM | 12 nM | CCc1c(N)ncnc1N1CCC(c2nc(-c3cccc(Cl)c3)cn2CCN2CCCC2)CC1 [Compound 274]
57 | 2.8 nM | 430 nM | CCc1c(N)ncnc1N1CCC(c2nc(-c3ccc(F)c(C(F)(F)F)c3)cn2CCN2CCC(F)(F)C2)CC1 [Compound 275]
58 | 2.8 nM | 9.3 nM | CCc1c(N)ncnc1N1CCC(c2nc(-c3ccc(F)c(C(F)(F)F)c3)cn2CCN2CCCCC2)CC1 [Compound 276]
59 | 3.2 nM | 18 nM | CCc1c(N)ncnc1N1CCC(c2nc(-c3cccc(C(F)(F)F)c3)cn2CCN2CCC2)CC1 [Compound 277]
60 | 4.6 nM | 79.5 nM | CCc1c(N)ncnc1N1CCC(c2nc(-c3cccc(F)c3)cn2CCN2CCC2)CC1 [Compound 278]
61 | 2.4 nM | 16 nM | CCc1c(N)ncnc1N1CCC(c2nc(-c3cccc(Cl)c3)cn2CCN2CCC2)CC1 [Compound 279]

From patent US9145392B2, “Imidazole amines as modulators of kinase activity” (Merck Patent GmbH, priority 2011, dated 2015)
